Patent US20050282814A1, “Vasculostatic agents and methods of use thereof” (TargeGen, Inc., priority 2002, published 2005)
Structures can show the parent of a compound that is named as a salt. Values belong to the molecule of their own block, whether it stands above or below them.

Assays:
acute myocardial infarct = assay: Rat acute myocardial infarct model (60 min LAD occlusion, reperfusion); type: in vivo, Sprague-Dawley rats; details: 1.0 mg/kg IV at 90 min post-reperfusion; 24 hr; vs vehicle
Protocol: A rodent model of acute myocardial infarct, in which the proximal left anterior descending coronary artery (LAD) is occluded for 60 min followed by reperfusion, was used to determine whether test agents reduced infarct size at 24 hours.
Myocardial infarcts were created in Sprague-Dawley rats (200-300 g body weight) by a 60 min occlusion of the LAD followed by LAD reperfusion. At 90 min post-reperfusion, either vehicle alone or test agents were injected IV. At 24 hr post-treatment, the ischemic zone (area at-risk, AAR) was delineated by re-ligation of the LAD followed by IV injection of alkali blue dye, after which hearts were sectioned along the short axis and stained using triphenyltetrazolium chloride to delineate viable from infarcted myocardium. Photographic images were then analyzed using morphometric software to calculate infarct area as a percent of the at-risk area.
The following studies were performed as described above, except that the timing of 3-[2,4-diamino-6-(3-hydroxyphenyl)pteridin-7-yl] phenol dihydrochloride salt administration (at 0.1 mg/kg) was varied. In one group, 3-[2,4-diamino-6-(3-hydroxyphenyl)pteridin-7-yl] phenol dihydrochloride salt was administered at both 60 and 240 min post-occlusion.
In a porcine MI model (90 min of LAD occlusion followed by complete reperfusion), a single 0.3 mg/kg IV bolus delivered 30 min post-reperfusion reduced infarct size by […] vs. controls (40% vs. 56%, N=12-13, P=0.03).

recombinant human c-Src = target: T1, recombinant human c-Src (Homo sapiens, UniProt P12931); assay: c-Src kinase inhibition, KinaseGlo residual ATP; type: biochemical; details: ATP 3 μM, 90 minutes at room temperature
T1 construct: purchased Panvera, Madison Wis
T1 sequence (P12931 whole entry): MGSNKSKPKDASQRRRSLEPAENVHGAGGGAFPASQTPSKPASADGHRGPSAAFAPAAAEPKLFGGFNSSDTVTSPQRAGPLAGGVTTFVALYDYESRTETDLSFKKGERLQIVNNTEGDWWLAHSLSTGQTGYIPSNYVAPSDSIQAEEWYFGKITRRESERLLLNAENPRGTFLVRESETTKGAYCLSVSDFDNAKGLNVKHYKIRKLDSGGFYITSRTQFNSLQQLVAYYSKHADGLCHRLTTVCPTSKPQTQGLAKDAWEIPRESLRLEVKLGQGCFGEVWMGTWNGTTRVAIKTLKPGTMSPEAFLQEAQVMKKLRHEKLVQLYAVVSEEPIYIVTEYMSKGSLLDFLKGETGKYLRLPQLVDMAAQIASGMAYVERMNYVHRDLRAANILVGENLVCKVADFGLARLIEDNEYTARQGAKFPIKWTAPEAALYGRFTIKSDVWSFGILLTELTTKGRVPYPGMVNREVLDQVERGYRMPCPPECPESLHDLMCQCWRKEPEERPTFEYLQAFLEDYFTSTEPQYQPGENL
Description: (§1) The ability of compounds to inhibit the activity of two Src-family kinases (c-Src and Yes) was directly tested.

recombinant human Yes = target: T2, recombinant human Yes (Homo sapiens, UniProt P07947); assay: Yes kinase inhibition, KinaseGlo residual ATP; type: biochemical; details: ATP 3 μM, 90 minutes at room temperature
T2 construct: purchased Panvera, Madison Wis
T2 sequence (P07947 whole entry): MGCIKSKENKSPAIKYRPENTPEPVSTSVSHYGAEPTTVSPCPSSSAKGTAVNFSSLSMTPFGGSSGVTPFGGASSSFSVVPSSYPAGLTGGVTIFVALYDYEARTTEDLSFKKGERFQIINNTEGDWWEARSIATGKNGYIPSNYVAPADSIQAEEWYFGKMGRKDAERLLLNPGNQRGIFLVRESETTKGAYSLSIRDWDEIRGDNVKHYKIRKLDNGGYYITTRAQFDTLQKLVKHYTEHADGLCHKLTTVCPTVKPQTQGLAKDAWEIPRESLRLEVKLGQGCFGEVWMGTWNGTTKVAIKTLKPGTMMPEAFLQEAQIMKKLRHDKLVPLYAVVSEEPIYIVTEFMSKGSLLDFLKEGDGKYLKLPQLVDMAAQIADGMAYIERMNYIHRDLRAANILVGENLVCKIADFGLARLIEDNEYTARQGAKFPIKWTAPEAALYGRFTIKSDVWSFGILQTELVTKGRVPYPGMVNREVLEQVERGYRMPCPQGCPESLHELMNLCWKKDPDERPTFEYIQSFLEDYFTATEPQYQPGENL
Description: as §1

[1] = target: T3, human p120γ subunit of PI3K (Homo sapiens, UniProt P48736); assay: PI3K p120γ enzymatic activity at two concentrations (Upstate Group); type: biochemical; details: 100% = no inhibition, 0% = complete inhibition; for remaining activity at 0.5 µM: read-out: Percent Control Value at 0.5 μM; for remaining activity at 5 µM: read-out: Percent Control Value at 5 μM
T3 construct: Upstate Group, Charlottesville, Va; (ran the assay under contract)
T3 sequence (P48736 whole entry): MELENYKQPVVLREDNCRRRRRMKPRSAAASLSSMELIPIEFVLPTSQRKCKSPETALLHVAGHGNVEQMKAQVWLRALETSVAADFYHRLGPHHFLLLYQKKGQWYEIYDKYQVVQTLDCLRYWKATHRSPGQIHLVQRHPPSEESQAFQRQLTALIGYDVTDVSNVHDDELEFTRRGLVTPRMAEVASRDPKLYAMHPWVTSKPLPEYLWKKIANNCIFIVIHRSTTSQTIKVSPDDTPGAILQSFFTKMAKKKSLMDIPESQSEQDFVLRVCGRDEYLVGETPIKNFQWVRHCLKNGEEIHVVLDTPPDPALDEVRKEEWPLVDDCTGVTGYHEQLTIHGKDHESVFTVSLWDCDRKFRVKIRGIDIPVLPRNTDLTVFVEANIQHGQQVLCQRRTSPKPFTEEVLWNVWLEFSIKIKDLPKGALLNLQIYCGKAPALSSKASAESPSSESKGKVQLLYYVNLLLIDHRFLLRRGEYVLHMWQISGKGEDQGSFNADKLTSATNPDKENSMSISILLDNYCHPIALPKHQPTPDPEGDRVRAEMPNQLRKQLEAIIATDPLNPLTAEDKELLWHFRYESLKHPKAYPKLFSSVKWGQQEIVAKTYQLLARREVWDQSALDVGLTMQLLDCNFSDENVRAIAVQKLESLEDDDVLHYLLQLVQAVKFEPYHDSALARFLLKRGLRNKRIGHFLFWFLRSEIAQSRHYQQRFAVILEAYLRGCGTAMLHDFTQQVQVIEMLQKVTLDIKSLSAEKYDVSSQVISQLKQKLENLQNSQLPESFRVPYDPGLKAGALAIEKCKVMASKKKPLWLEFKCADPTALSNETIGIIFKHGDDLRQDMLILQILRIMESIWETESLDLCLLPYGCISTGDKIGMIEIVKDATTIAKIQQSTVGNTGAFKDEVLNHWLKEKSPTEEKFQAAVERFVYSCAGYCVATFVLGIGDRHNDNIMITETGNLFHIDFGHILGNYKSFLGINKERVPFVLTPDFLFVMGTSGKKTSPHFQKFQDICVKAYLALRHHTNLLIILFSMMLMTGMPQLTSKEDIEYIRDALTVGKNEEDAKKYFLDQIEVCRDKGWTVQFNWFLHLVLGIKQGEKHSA
Protocol: The ability of compounds to inhibit the activity of PI3K kinase was determined using biochemical assays. In a first assay, compounds were tested at two concentrations (0.5 and 5 μM) for their ability to inhibit enzymatic activity of the human p120γ subunit of PI3K (the assay being performed under contract by Upstate Group, Charlottesville, Va.).

[2] = target: recombinant phosphatidylinositol 3-kinase-p120γ (PI3K) (Homo sapiens, UniProt P48736); assay: biochemical
Chain of recombinant phosphatidylinositol 3-kinase-p120γ (PI3K) (P48736 whole entry): as above

VEGF-induced edema = assay: Miles assay, VEGF-induced edema; type: in vivo, Sprague-Dawley rats; details: VEGF 200 ng/site, 45 min, vehicle 12
Protocol: A rodent model of vascular edema, the Miles assay, was used to screen compounds for their ability to inhibit VEGF-induced edema.
Sprague-Dawley rats were first injected IV with vehicle alone or test agent, followed by IV injection of Evans blue dye, followed by intradermal injections of saline and VEGF (200 ng/injection site) along both shaved flanks. After 45 min, intradermal injection sites were photographed and then scored by a blinded observer for extravasation of Evans blue dye into the dermis (dermal bluing) according to a 4 point scoring system (3=maximal bluing, ≧75% of response in vehicle-treated animals; 2=medium bluing, >25% but <75% of vehicle-treated animals; 1=minimal bluing, ≦25% of vehicle-treated animals; 0=bluing equivalent to saline injection sites on same animal). Individual scores for 4 injection sites (from 2 separate animals) were summed and are shown as a scale of 0-12, with a lower score indicating the greater anti-edema activity; note that all vehicle-treated groups score a value of 12, based on the scoring system outlined above.

cerebral stroke = assay: Cerebral stroke model, permanent middle cerebral artery occlusion; type: in vivo, mice; details: 1 mg/kg BW IV 60 min after ligation, 24 hours; for % Infarct reduction: vs vehicle
Protocol: A rodent model of cerebral stroke, in which the middle cerebral artery is permanently occluded, was used to determine whether test agents reduced infarct size at 24 hours.
Cerebral strokes were created in mice by permanent ligation of the middle cerebral artery using a cauterizing tool, followed 60 min later by IV injection of either vehicle alone (50% PEG400 in water) or test agents (at 1 mg/kg BW). Twenty four hours later, brains were sectioned and stained using triphenyltetrazolium chloride to delineate viable from infarcted tissue. Photographic images were then analyzed using morphometric software to calculate infarct area.

Compound: Cl.Cl.Nc1nc(N)c2nc(-c3cccc(O)c3)c(-c3cccc(O)c3)nc2n1
- % Infarct reduction (acute myocardial infarct): Not significant

Compound: Oc1ccc(CNc2ncnc3ncc(-c4ccccc4)nc23)cc1O
- IC50 (recombinant human c-Src): 420 nM

- IC50 (recombinant human c-Src): 1600 nM
- IC50 (recombinant human Yes): 1000 nM
Compound: Nc1cncc2nc(-c3ccc(O)c(O)c3)c(-c3ccc(O)c(O)c3)nc12 [2,3-Bis(3,4-dihydroxyphenyl)-pyrido[3,4-b]pyrazin-8-ylamine hydrochloride salt]

- remaining activity at 0.5 µM [1]: 101%
- remaining activity at 5 µM [1]: 90%
Compound: Nc1cncc2nc(-c3cccc(O)c3)c(-c3cccc(O)c3)nc12 [2,3-Bis(3-hydroxyphenyl)-pyrido[3,4-b]pyrazin-8-ylamine hydrochloride salt]

- remaining activity at 0.5 µM [1]: 101%
- remaining activity at 5 µM [1]: 94%
Compound: Nc1cncc2nc(-c3ccc(O)cc3)c(-c3ccc(O)cc3)nc12 [2,3-Bis(4-hydroxyphenyl)-pyrido[3,4-b]pyrazin-8-ylamine]

- IC50 [2]: 48000 nM
- remaining activity at 0.5 µM [1]: 102%
- remaining activity at 5 µM [1]: 99%
Compound: Nc1nc(O)c2nc(-c3cccc(O)c3)c(-c3cccc(O)c3)nc2n1 [2-Amino-6,7-bis-(3-hydroxy-phenyl)-pteridin-4-ol]

- IC50 (recombinant human c-Src): 337 nM
- IC50 (recombinant human Yes): 303 nM
Compound: O=C(Nc1ccccc1-c1cc2ccccc2[nH]1)c1ccc(O)c(O)c1 [3,4-Dihydroxy-N-(2-(1H-indol-2-yl)-phenyl)-benzamide]

- IC50 (recombinant human c-Src): 12000 nM
- IC50 (recombinant human Yes): 6800 nM
Compound: Nc1nnc2cc(-c3cccc(O)c3)ccc2n1 [3-(3-Amino-benzo[1,2,4]triazin-7-yl)-phenol]

Compound: O=C(Nc1ccccc1-c1cc2ccccc2[nH]1)c1cccnc1C(=O)O [3-[2-(1H-Indol-2-yl)-phenyicarbamoyl]-pyridine-2-carboxylic acid]
- Score (scale of 0-12) (VEGF-induced edema; 0.5 mg/kg IV): 5

- IC50 (recombinant human c-Src): 317 nM
Compound: Oc1ccc(CCNc2ncnc3ncc(-c4ccccc4)nc23)cc1O [4-[2-(6-Phenyl-pteridin-4-ylamino)-ethyl]benzene-1,2-diol]

Compound: Cl.Nc1ncnc2nc(-c3ccc(O)c(O)c3)c(-c3ccc(O)c(O)c3)nc12 [4-[4-amino-6-(3,4-dihydroxyphenyl)pteridin-7-yl]benzene-1,2-diol hydrochloride salt]
- IC50 (recombinant human c-Src): 1300 nM
- Score (scale of 0-12) (VEGF-induced edema; 0.01 mg/kg IV): 6
- Score (scale of 0-12) (VEGF-induced edema; 0.1 mg/kg IV): 3
- Score (scale of 0-12) (VEGF-induced edema; 1 mg/kg IV): 5

Compound: Nc1ncnc2nc(-c3ccc(O)c(O)c3)c(-c3ccc(O)c(O)c3)nc12 [4-[4-amino-6-(3,4-dihydroxyphenyl)pteridin-7-yl]benzene-1,2-diol methanesulfonate salt]
- IC50 (recombinant human c-Src): 800 nM

Compound: Nc1ncnc2nc(-c3ccc(O)c(O)c3)c(-c3ccc(O)c(O)c3)nc12 [4-[4-amino-6-(3,4-dihydroxyphenyl)pteridin-7-yl]benzene-1,2-diol]
- IC50 [2]: 968 nM

Compound: Nc1ncnc2nc(-c3cccc(O)c3)c(-c3cccc(O)c3)nc12 [6,7-Bis(3-hydroxyphenyl)-pteridine-4-ylamine hydrobromide salt]
- IC50 (recombinant human c-Src): 8800 nM

- remaining activity at 0.5 µM [1]: 94%
- remaining activity at 5 µM [1]: 46%
Compound: Nc1nc(N)c2nc(-c3ccc(O)cc3)c(-c3ccc(O)cc3)nc2n1 [6,7-Bis(4-hydroxyphenyl)-pteridine-2,4-diamine]

Compound: Nc1ncnc2nc(-c3ccccn3)c(-c3ccccn3)nc12 [6,7-Di-pyridin-2-yl-pteridin-4-ylamine]
- % Infarct reduction (cerebral stroke): Not significant

Compound: Nc1nc(N)c2nc(-c3ccc(O)c(O)c3)c(-c3ccc(O)c(O)c3)nc2n1 [6,7-bis(3,4-dihydroxyphenyl)-pteridine-2,4-diamine dihydrochloride salt]
- IC50 (recombinant human c-Src): 2600 nM
- IC50 (recombinant human Yes): 1100 nM

Compound: Nc1nc(N)c2nc(-c3ccc(O)c(O)c3)c(-c3ccc(O)c(O)c3)nc2n1 [6,7-bis(3,4-dihydroxyphenyl)-pteridine-2,4-diamine]
- IC50 [2]: 273 nM
- remaining activity at 0.5 µM [1]: 66%
- remaining activity at 5 µM [1]: 12%

- IC50 (recombinant human c-Src): 1800 nM
- IC50 (recombinant human Yes): 900 nM
Compound: Oc1nc(O)c2nc(-c3ccc(O)c(O)c3)c(-c3ccc(O)c(O)c3)nc2n1 [6,7-bis(3,4-dihydroxyphenyl)pteridine-2,4-diol]

Compound: Nc1ncnc2nc(-c3cccc(O)c3)c(-c3cccc(O)c3)nc12 [6,7-bis(3-hydroxyphenyl)-pteridin-4-ylamine hydrochloride salt]
- IC50 (recombinant human c-Src): 10000 nM
- IC50 (recombinant human Yes): 6300 nM

Compound: Nc1ncnc2nc(-c3cccc(O)c3)c(-c3cccc(O)c3)nc12 [6,7-bis(3-hydroxyphenyl)-pteridin-4-ylamine]
- IC50 [2]: 3900 nM
- remaining activity at 0.5 µM [1]: 97%
- remaining activity at 5 µM [1]: 71%

- IC50 (recombinant human c-Src): 27600 nM
- IC50 (recombinant human Yes): 3800 nM
Compound: Nc1ncc2nc(-c3cccc(O)c3)c(-c3cccc(O)c3)nc2n1 [6,7-bis(3-hydroxyphenyl)-pteridine-2-amine]

Compound: Nc1ncnc2nc(-c3ccc(O)cc3)c(-c3ccc(O)cc3)nc12 [6,7-bis(4-hydroxyphenyl)-pteridin-4-ylamine]
- remaining activity at 0.5 µM [1]: 102%
- remaining activity at 5 µM [1]: 85%

Compound: Nc1nc(N)c2nc(CNCc3ccc4ccccc4c3)cnc2n1 [6-{[(Naphthalen-2-ylmethyl)-amino]-methyl-pteridine-2,4-diamine]
- Score (scale of 0-12) (VEGF-induced edema; 0.1 mg/kg IV): 4

- IC50 (recombinant human c-Src): 9200 nM
- IC50 (recombinant human Yes): 7000 nM
Compound: Nc1nnc2cc(-c3ccccc3C(F)(F)F)ccc2n1 [7-(2-Trifluoromethyl-phenyl)-benzo[1,2,4]triazin-3-ylamine]

- IC50 (recombinant human c-Src): 900 nM
- IC50 (recombinant human Yes): 9300 nM
Compound: Nc1nnc2cc(-c3cccc4ccccc34)ccc2n1 [7-Naphthalen-1-yl-benzo[1,2,4]triazin-3-ylamine]

Compound: Cc1ccc(-c2nn(C(C)(C)C)c3ncnc(N)c23)cc1 [PP1, reference compound]
- Infarct area in mm^3 (mean ± SEM) (cerebral stroke): 35.4 ± 6.4 mm^3
- % Infarct reduction (cerebral stroke): Not significant

Compound: CN(C)S(=O)(=O)c1ccc2c(c1)/C(=C/c1cc3c([nH]1)CCCC3)C(=O)N2 [SU6656, reference compound]
- % Infarct reduction (cerebral stroke): Not significant

- IC50 (recombinant human c-Src): 294 nM
Compound: Cc1cccc(C)c1-c1cc(C)c2nc(Nc3ccccc3)nnc2c1 [[7-(2,6-Dimethyl-phenyl)-5-methyl-benzo[1,2,4]triazin-3-yl]-phenyl-amine]

- remaining activity at 0.5 µM [1]: 101%
- remaining activity at 5 µM [1]: 81%
Compound: Nc1nc(N)c2nc(-c3ccccc3)c(-c3ccccc3)nc2n1 [compound B, 6,7-diphenyl-pteridine-2,4-diamine]

Compound: Nc1ccc2nc(-c3ccc(O)c(O)c3)c(-c3ccc(O)c(O)c3)nc2n1 [compound C, 2,3-Bis(3,4-dihydroxyphenyl)-pyrido[2,3-b]pyrazin-6-ylamine dihydrochloride salt]
- IC50 (recombinant human c-Src): 1300 nM
- IC50 (recombinant human Yes): 756 nM
